The values that follow come from patent US20260070918A1, “HETEROBICYCLIC COMPOUNDS AS EP4 RECEPTOR ANTAGONISTS” (priority 2022, published 2026).

One data set deals with EP4 receptor (Homo sapiens (Human), UniProt P35408). The experiment in a line: EP4 receptor binding assay (inhibition of [3H]PGE2 binding). The settings on record: human recombinant Chem-1 cells, 1 nM [3H]PGE2, 2 hours @25° C. Here is the method: Transfected HEK 293(ebna) cells are maintained in culture and harvested, and membranes are prepared by differential centrifugation, following lysis of the cells in the presence of protease inhibitors, for use in receptor binding assays. Prostanoid receptor binding assays (for DP1, DP2 (CRTH2), EP1, EP2, EP3-III, EP4, FP, IP, and TP) are performed in 10 mM MES/KOH (pH 6.0) (EPs, FP and TP) or 10 mM HEPES/KOH (pH 7.4) (DPs and IP), containing 1 mM EDTA, 2.5-30 mM divalent cation and the appropriate radioligand that specifically binds to a target prostanoid receptor. Synthetic compounds are added in dimethyl sulfoxide which is kept constant at 1% (v/v) in all incubations. The reaction is initiated by addition of membrane protein. Non-specific binding is determined in the presence of 10 μM of the corresponding non-radioactive prostanoid. Incubations are conducted for 60-90 min at room temperature or 30° C. and terminated by rapid filtration. Compound binding is calculated as a % inhibition of the binding of the radioligand after subtracting nonspecific binding from total binding. The residual specific binding at each ligand concentration is calculated and expressed as a function of ligand concentration to construct sigmoidal concentration-response curve. Half maximal inhibitory concentration, IC50 values of compounds are determined by nonlinear regression analysis of the concentration-response curves using Hill equation curve fitting equation Y=D+[(A−D)/(1+C/IC50)^H], where Y=specific binding, A=left asymptote of the curve, D=right asymptote of the curve, C=compound concentration, and H=slope factor. The binding affinity of the compounds is determined by calculating the equilibrium inhibition constant (Ki) from the equation Ki═InPt/1+[radioligand]/Kd where Kd is the equilibrium dissociation constant for the radioligand: receptor interaction and InPt is the inflection point of the dose-response curves.
Chain of EP4 receptor (P35408 whole entry): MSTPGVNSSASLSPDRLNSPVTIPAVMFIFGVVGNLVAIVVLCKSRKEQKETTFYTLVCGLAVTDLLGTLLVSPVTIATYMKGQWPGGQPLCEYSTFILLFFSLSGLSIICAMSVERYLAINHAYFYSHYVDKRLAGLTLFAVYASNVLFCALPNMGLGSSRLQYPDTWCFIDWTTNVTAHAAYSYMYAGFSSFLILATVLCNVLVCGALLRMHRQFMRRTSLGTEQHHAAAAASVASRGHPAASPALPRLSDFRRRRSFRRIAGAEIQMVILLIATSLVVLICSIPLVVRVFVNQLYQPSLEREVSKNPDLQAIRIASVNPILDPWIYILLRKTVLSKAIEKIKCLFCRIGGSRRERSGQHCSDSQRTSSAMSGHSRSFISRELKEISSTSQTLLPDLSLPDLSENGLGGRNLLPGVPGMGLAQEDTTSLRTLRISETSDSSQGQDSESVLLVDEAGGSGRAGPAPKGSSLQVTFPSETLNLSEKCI
EP4 receptor binding assays were performed at MSD Pharma Service in Taiwan under the following assay conditions: • Source: Human recombinant Chem-1 cells • Ligand: 1 nM [^3H]

Data set [1] can be described thus: Rat pharmacokinetic (PK) assay. Type of data set: in vivo, Sprague-Dawley rat. As to the method:
Test compound was dissolved in 10% DMSO, 40% PEG-400, and 50% water for intravenous (i.v.) and oral (p.o.) administration to rat. […] Three male animals received single p.o. doses by gavage tube (5 mg/kg). Blood samples were collected into K2-EDTA tubes from the jugular vein at 0.083, 0.25, 0.5, 1, 2, 4, 8, and 24 h post dosing. After centrifugation, plasma samples were prepared via protein precipitation and detected through LC-MS/MS. The pharmacokinetics parameters were calculated using Phoenix software V 8.3.4.

A short description of data set [2]: Liver microsomal stability, rat. It is filed as in vitro ADME. The settings on record: pooled rat liver microsomes; for microsomal CLint: read-out: In vitro CLint; for half-life: read-out: In vitro T1/2; for CLint scaled: read-out: Scale-up CLint. Here is the method: (§1) Microsomal stability assay is performed to understand the metabolism of the representative compounds.
(§2) In vitro microsomal stability was determined in pooled human, dog, rat, and mouse liver microsomes. Test compounds (Table 2) were incubated in the presence and absence of NADPH for 0-60 min and the amount of remaining compound was quantified through LC-MS/MS analysis.
A general note: Microsomes from liver hold many membrane-bound enzymes, among them those of drug oxidation.

Data set [3] can be described thus: Liver microsomal stability, mouse. Type of data set: in vitro ADME. The settings on record: pooled mouse liver microsomes; for microsomal CLint: read-out: In vitro CLint; for half-life: read-out: In vitro T1/2; for CLint scaled: read-out: Scale-up CLint. As to the method:
as §1, §2

Data set [4] in a line: Liver microsomal stability, dog. Type of data set: in vitro ADME. The settings on record: pooled dog liver microsomes; for microsomal CLint: read-out: In vitro CLint; for half-life: read-out: In vitro T1/2; for CLint scaled: read-out: Scale-up CLint. As to the method: as §1, §2
Data set [5] can be described thus: Liver microsomal stability, human. The settings on record: pooled human liver microsomes; for microsomal CLint: read-out: In vitro CLint; for half-life: read-out: In vitro T1/2; for CLint scaled: read-out: Scale-up CLint. Type of data set: in vitro ADME. As to the method: as §1, §2
Where [6] appears, read: male, Sprague-Dawley, plasma, Rat iv, dose 5 mg/kg (table).
Where [7] appears, read: male, Sprague-Dawley, plasma, Rat po, dose 10 mg/kg (table).

A word on the IC50: it is the concentration that inhibits the measured activity by half. In the case of “3-[1-[[2-methyl-4-[[4-(trifluoromethyl)phenyl]methyl]thieno[3,2-b]pyrrole-3-carbonyl]amino]ethyl]bicyclo[1.1.1]pentane-1-carboxylic acid [Example 10]”, the IC50 at EP4 receptor is 620 nM.

By AUC(0-inf) is commonly meant total exposure, with the tail of the curve extrapolated. Read a high AUC(0-inf) as more exposure. The term AUC(0-t) denotes the area under the concentration-time curve up to a stated or last time point. By MRT is commonly meant the average time that molecules of a dose stay in the body. As a reminder, the Cmax is the maximum level reached in the sampled fluid or tissue. The term Tmax denotes the time from dosing to the highest level. In general, bioavailability refers to dose-corrected exposure relative to a reference, in per cent. Read a high bioavailability as much systemic uptake. In data set [1] (Rat iv, dose 5 mg/kg (table)), `O=C(O)c1ccc(C2(NC(=O)c3c(Cl)sc4ccn(Cc5ccc(C(F)(F)F)cc5)c34)CC2)cc1` [Example 1, 4-[1-[[2-chloro-4-[[4-(trifluoromethyl)phenyl]methyl]thieno[3,2-b]pyrrole-3-carbonyl]amino]cyclopropyl]benzoic acid] gave a CL_obs of 2.57 mL/min/kg and a Vss_obs of 1.64 L/kg. In data set [1] (setting [6]), this molecule returned an area under the curve AUC(0-inf) of 33600 ng·h/mL, an exposure AUC(0-t) of 27700 ng·h/mL, a C0 of 8380 ng/mL and an MRT of 5.93 h. In addition, in data set [1] (setting [6]), the half-life is 9.47 h. In data set [1] (setting [7]), this molecule displayed an AUC(0-inf) of 26700 ng·h/mL, an AUC(0-t) of 23400 ng·h/mL, a Cmax of 1830 ng/mL and a mean residence time MRT of 7.98 h. Moreover, in data set [1] (setting [7]), the time of peak concentration (Tmax) came out at 6.67 h and the half-life was 8.97 h. This molecule also showed a bioavailability in data set [1] (male, Sprague-Dawley, plasma, Rat po, dose 10 mg/kg vs iv 5 mg/kg (table)) of 42.3%. Besides, in data set [2], the microsomal CLint came out at 13.4 µL/min/mg, the half-life came to 1.73 h and the CLint scaled is 24 mL/min/kg. Also, in data set [3], the microsomal CLint was 15 µL/min/mg, the half-life is 1.54 h and the CLint scaled is 66.1 mL/min/kg. Moreover, in data set [4], the microsomal CLint is 9.89 µL/min/mg, the half-life was 2.33 h and the CLint scaled worked out at 24.6 mL/min/kg. For the same molecule, in data set [5], the microsomal CLint was found to be 11.4 µL/min/mg, the half-life came to 2.03 h and the CLint scaled amounted to 14.3 mL/min/kg. On EP4 receptor, the IC50 turned out to be 0.25 nM.

Turning to `O=C(O)c1ccc(C2(NC(=O)c3c(CO)sc4ccn(Cc5ccc(C(F)(F)F)cc5)c34)CC2)cc1` [Example 2, 4-[1-[[2-(hydroxymethyl)-4-[[4-(trifluoromethyl)phenyl]methyl]thieno[3,2-b]pyrrole-3-carbonyl]amino]cyclopropyl]benzoic acid], at EP4 receptor, the IC50 came to 1.1 nM.

Consider `O=C(O)c1ccc(C2(NC(=O)c3c(F)sc4ccn(Cc5ccc(C(F)(F)F)cc5)c34)CC2)cc1` [Example 3, 4-(1-(2-fluoro-4-(4-(trifluoromethyl)benzyl)-4H-thieno[3,2-b]pyrrole-3-carboxamido)cyclopropyl)benzoic acid], for which the microsomal CLint in data set [2] was 8.4 µL/min/mg; in data set [3], 6.85 µL/min/mg; in data set [4], 3.2 µL/min/mg; in data set [5], 4.03 µL/min/mg. Also, the half-life in data set [2] worked out at 2.75 h; in data set [3] it was 3.37 h; in data set [4], 7.23 h; in data set [5], 5.73 h. Besides, the CLint scaled in data set [2] was 15 mL/min/kg; in data set [3] it was 30.1 mL/min/kg; in data set [4], 7.97 mL/min/kg; in data set [5], 5.05 mL/min/kg. In addition, the IC50 on EP4 receptor stood at 0.48 nM.

On to `COc1sc2ccn(Cc3ccc(C(F)(F)F)cc3)c2c1C(=O)NC1(c2ccc(C(=O)O)cc2)CC1` [Example 4, 4-(1-(2-methoxy-4-(4-(trifluoromethyl)benzyl)-4H-thieno[3,2-b]pyrrole-3-carboxamido)cyclopropyl)benzoic acid], for which the microsomal CLint in data set [2] stood at 11.1 µL/min/mg; in data set [3] it was 10.6 µL/min/mg; in data set [4] it was 6.06 µL/min/mg; in data set [5] it was 3.24 µL/min/mg. The half-life in data set [2] came to 2.08 h; in data set [3], 2.18 h; in data set [4], 3.82 h; in data set [5] it was 7.13 h. Further, the CLint scaled in data set [2] is 19.8 mL/min/kg; in data set [3] it was 46.7 mL/min/kg; in data set [4], 15.1 mL/min/kg; in data set [5], 4.06 mL/min/kg. The IC50 at EP4 receptor was 0.35 nM.

On to `O=C(NC1(C23CC(C(=O)O)(C2)C3)CC1)c1c(Cl)sc2ccn(Cc3ccc(C(F)(F)F)cc3)c12` [Example 5, 3-[1-[[2-chloro-4-[[4-(trifluoromethyl)phenyl]methyl]thieno[3,2-b]pyrrole-3-carbonyl]amino]cyclopropyl]bicyclo[1.1.1]pentane-1-carboxylic acid], for which, at EP4 receptor, the IC50 amounted to 28 nM.

Regarding `O=C(NC1(C23CCC(C(=O)O)(CC2)CC3)CC1)c1c(Cl)sc2ccn(Cc3ccc(C(F)(F)F)cc3)c12` [Example 6, 4-[1-[[2-chloro-4-[[4-(trifluoromethyl)phenyl]methyl]thieno[3,2-b]pyrrole-3-carbonyl]amino]cyclopropyl]bicyclo[2.2.2]octane-1-carboxylic acid], the IC50 on EP4 receptor was found to be 8.4 nM.

For the molecule `Cc1sc2ccn(Cc3ccc(C(F)(F)F)cc3)c2c1C(=O)NC1(C23CC(C(=O)O)(C2)C3)CC1` [Example 7, 3-[1-[[2-methyl-4-[[4-(trifluoromethyl)phenyl]methyl]thieno[3,2-b]pyrrole-3-carbonyl]amino]cyclopropyl]bicyclo[1.1.1]pentane-1-carboxylic acid], on EP4 receptor, the IC50 came to 50 nM.

Regarding `Cc1sc2ccn(Cc3ccc(C(F)(F)F)cc3)c2c1C(=O)NC1(C23CCC(C(=O)O)(CC2)CC3)CC1` [Example 8, 4-[1-[[2-methyl-4-[[4-(trifluoromethyl)phenyl]methyl]thieno[3,2-b]pyrrole-3-carbonyl]amino]cyclopropyl]bicyclo[2.2.2]octane-1-carboxylic acid], the half-maximal inhibitory concentration (IC50) at EP4 receptor amounted to 4.9 nM.

As for `CC(NC(=O)c1c(Cl)sc2ccn(Cc3ccc(C(F)(F)F)cc3)c12)C12CC(C(=O)O)(C1)C2` (stereo not shown) [Example 9, 3-[1-[[2-chloro-4-[[4-(trifluoromethyl)phenyl]methyl]thieno[3,2-b]pyrrole-3-carbonyl]amino]ethyl]bicyclo[1.1.1]pentane-1-carboxylic acid], the IC50 on EP4 receptor was determined as 180 nM.

For the molecule `O=C(O)c1ccc(C2(NC(=O)c3c(C(F)(F)F)sc4ccn(Cc5ccc(C(F)(F)F)cc5)c34)CC2)cc1` [Example 11, 4-(1-(2-(trifluoromethyl)-4-(4-(trifluoromethyl)benzyl)-4H-thieno[3,2-b]pyrrole-3-carboxamido)cyclopropyl)benzoic acid], at EP4 receptor, the IC50 was 1.2 nM.
